Key:
[1] = target: T1, Recombinant human 17β-HSD13 (Homo sapiens, UniProt Q7Z5P4); experiment: 17β-HSD13 rapid-fire mass spectrometry assay (RF/MS assay); assay type: biochemical; details: inhibition of 17β-HSD13, RF/MS assay; HSD17B13 80 nM, LTB4 10 μM, NAD+ 0.5 mM, RT 3 h
T1 construct: host or cells: Sf9 insect cells
T1 sequence (Q7Z5P4 20-300): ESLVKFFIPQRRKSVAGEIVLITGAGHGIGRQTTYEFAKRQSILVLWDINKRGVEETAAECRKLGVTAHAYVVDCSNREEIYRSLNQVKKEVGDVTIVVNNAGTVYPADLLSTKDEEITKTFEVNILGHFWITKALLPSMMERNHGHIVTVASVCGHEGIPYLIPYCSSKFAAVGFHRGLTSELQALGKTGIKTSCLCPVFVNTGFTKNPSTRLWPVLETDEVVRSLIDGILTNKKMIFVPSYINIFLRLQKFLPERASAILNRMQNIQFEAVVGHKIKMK
From the text: 17(3-HSD13 rapid-fire mass spectrometry assay (RF/MS assay). Recombinant human 17β-HSD13 was expressed and purified from sf9 cells at Charles River Labs (Saffron Walden, UK). Leukotriene B4 (Catalog #71160-24-2) and 12-oxoleukotriene B4 (Catalog #20140) were purchased from Cayman Chemicals (Ann Arbor, MI). NAD+ (Catalog #N8285), BSA (Catalog #A7030), DMSO (Catalog #D2650), and Tween-20 (Catalog #11332465001) were purchased from Sigma (St. Louis, MO). Formic acid (Catalog #28905) was from ThermoFisher Scientific and 384 deep well PP microplates (Catalog #784261) were from Greiner Bio-One. In a typical IC50 assay performed in a 384w PP microplate, test compounds (0-100 μM) were incubated with HSD17B13 (80 nM), LTB4 (10 μM), and NAD^+ (0.5 mM) in 10 μL assay buffer (20 mM Tris (pH 7.5), BSA (0.005%), and Tween-20 (0.01%)) at RT for 3 h. The assays were quenched by adding 20 μL of 0.15% aqueous formic acid and the plates were frozen at −80° C. RF/MS analysis was performed at PureHoney Technologies (Billerica, MA) on a RapidFire RF300 system (Agilent Technologies, Inc.) coupled to an API 4000 triple quadrupole mass spectrometer (Sciex) equipped with Agilent RapidFire cartridge type A (C4). The mobile phase was 0.09% formic acid and 0.01% trifluoracetic acid in water (Buffer A) and 0.09% formic acid and 0.01% trifluoracetic acid in 80% aqueous acetonitrile (Buffer B). The RapidFire method conditions were the following: 250 ms aspirate, 3000 ms load/desalt, 4000 ms elute, and 500 ms re-equilibrate. RF-MS/MS was performed in negative polarity (−4500 V), the source temperature was 650° C., and gas 1 and gas 2 settings for nitrogen were set to 50. The curtain gas and collision gas were also nitrogen and were set to 20 and 12, respectively. Leukotriene B4 (335.3) and 12-oxoLeukotriene B4 (333.3) SRM transitions were optimized with Discovery Quant software and extracted ion counts for these analytes were determined.
Data Analysis. 17β-HSD13 enzyme activity was measured as percent conversion of extracted ion counts and normalized to high and low controls to determine percent residual activity at various concentrations of test compounds. Data was fitted to normalized activity (variable slope) versus concentration fit in GraphPad Prism 7 to determine IC50. All experiments were run in duplicates.
By using the above method, the inhibition of 17β-HSD13 was evaluated for the compounds of Formula (I). IC50 ranges are as follows: A is <0.1 μM; B is 0.1 μM-1.0 μM; C is 1.0 μM-10 μm; and D is >10 μM.

[2] = target: T2, human HSD17β13 (stable HEK293T cell line overexpressing human HSD17β13) (Homo sapiens, UniProt Q7Z5P4); experiment: HSD17β13 inhibitor cell-based screening assay (conversion of estradiol-d2 to estrone-d2 by RF-MS); details: conversion of estradiol-d2 to estrone-d2 after 24 hours
T2 construct: expressed in transfected cells
T2 sequence (Q7Z5P4 20-300): T1 sequence (Q7Z5P4 20-300)
How it was run: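 Cellular IC50 is based on 24-h conversion of estradiol-d2 (5 μM final) to estrone-d2, measured by RF-MS in acetonitrile-precipitated supernatants. Assay uses human HSD17β13-overexpressing HEK293T cells (7.5E3/well, 1% charcoal/dextran FBS MEM), with compounds dosed as a 9-point 1:3 series to 10 μM final. ATPlite luminescence on overexpressing and parent lines measured viability.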

Molecule O=c1c2c(nc(-c3ccc(OC(F)(F)F)cc3C3CC3)n1Cc1cnco1)sc1c(O)c(Cl)ccc12 [Example 131] has an IC50 [1] of under 100 nM and an IC50 [2] of under 100 nM.
COc1ccc(-c2nc3sc4c(N(C(C)=O)C(C)=O)cccc4c3c(=O)n2Cc2cnco2)c(C2CC2)c1 [Example 5, N-acetyl-N-(2-(2-cyclopropyl-4-methoxyphenyl)-3-(oxazol-5-ylmethyl)-4-oxo-3,4-dihydrobenzo[4,5]thieno[2,3-d]pyrimidin-8-yl)acetamide] gave an IC50 [1] of over 10000 nM and an IC50 [2] of 1000 to 100000 nM.
For COc1ccc(-c2nc3sc4c(B(O)O)cccc4c3c(=O)n2Cc2cnco2)c(C2CC2)c1 [Example 11, (2-(2-cyclopropyl-4-methoxyphenyl)-3-(oxazol-5-ylmethyl)-4-oxo-3,4-dihydrobenzo[4,5]thieno[2,3-d]pyrimidin-8-yl)boronic acid], the IC50 [1] was 100 to 1000 nM and the IC50 [2] was 500 to 1000 nM.
Work on COc1cc(-c2nc3sc4c(O)c(Cl)ccc4c3c(=O)n2Cc2cnco2)c(C2CC2)cc1Cl [Example 120] yielded an IC50 [1] of under 100 nM and an IC50 [2] of under 100 nM.
For COc1cc(C2CC2)c(-c2nc3sc4c(O)c(Cl)cc(Cl)c4c3c(=O)n2Cc2cnco2)cc1Cl [Example 19, 5,7-dichloro-2-(5-chloro-2-cyclopropyl-4-methoxyphenyl)-8-hydroxy-3-(oxazol-5-ylmethyl)benzo[4,5]thieno[2,3-d]pyrimidin-4(3H)-one], the IC50 [1] was 100 to 1000 nM and the IC50 [2] was 100 to 500 nM.
O=c1c2c(nc(-c3ccc(F)cc3C3CC3)n1Cc1cc(C(F)(F)F)no1)sc1c(O)c(Cl)ccc12 [Example 40, 7-chloro-2-(2-cyclopropyl-4-fluorophenyl)-8-hydroxy-3-((3-(trifluoromethyl)isoxazol-5-yl)methyl)benzo[4,5]thieno[2,3-d]pyrimidin-4(3H)-one] was tested, and the IC50 [1] was under 100 nM and the IC50 [2] was under 100 nM.
With CCOc1ccc(-c2nc3sc4c(O)c(Cl)ccc4c3c(=O)n2Cc2cnco2)c(C2CC2)c1 [Example 72, 7-chloro-2-(2-cyclopropyl-4-ethoxyphenyl)-8-hydroxy-3-(oxazol-5-ylmethyl)benzo[4,5]thieno[2,3-d]pyrimidin-4(3H)-one] the IC50 [1] was under 100 nM and the IC50 [2] was under 100 nM.
In the case of COc1ccc(-c2nc3sc4c(NS(C)(=O)=O)cccc4c3c(=O)n2Cc2cnco2)c(C2CC2)c1 [Example 7, N-(2-(2-cyclopropyl-4-methoxyphenyl)-3-(oxazol-5-ylmethyl)-4-oxo-3,4-dihydrobenzo[4,5]thieno[2,3-d]pyrimidin-8-yl)methanesulfonamide], the IC50 [1] is reported as over 10000 nM and the IC50 [2] is reported as 1000 to 100000 nM.
O=c1c2c(nc(-c3cc(F)c(Cl)cc3C3CC3)n1Cc1cnco1)sc1c(O)c(Cl)ccc12 [Example 123] was tested, and the IC50 [1] was under 100 nM and the IC50 [2] was under 100 nM.
In the case of COc1ccc(-c2nc3sc4c(NC(C)=O)cccc4c3c(=O)n2Cc2cnco2)c(C2CC2)c1 [Example 4, N-(2-(2-cyclopropyl-4-methoxyphenyl)-3-(oxazol-5-ylmethyl)-4-oxo-3,4-dihydrobenzo[4,5]thieno[2,3-d]pyrimidin-8-yl)acetamide], the IC50 [1] is reported as over 10000 nM and the IC50 [2] is reported as 1000 to 100000 nM.
With COc1ccc(-c2nc3sc4cc(O)ccc4c3c(=O)n2Cc2cnco2)c(C2CC2)c1 [Example 36, 2-(2-cyclopropyl-4-methoxyphenyl)-7-hydroxy-3-(oxazol-5-ylmethyl)benzo[4,5]thieno[2,3-d]pyrimidin-4(3H)-one] the IC50 [1] was over 10000 nM and the IC50 [2] was 1000 to 100000 nM.
COc1ccc(-c2nc3sc4c(C(F)F)cccc4c3c(=O)n2Cc2cnco2)c(C2CC2)c1 [Example 16, 2-(2-cyclopropyl-4-methoxyphenyl)-8-(difluoromethyl)-3-(oxazol-5-ylmethyl)benzo[4,5]thieno[2,3-d]pyrimidin-4(3H)-one] was tested, and the IC50 [1] was over 10000 nM and the IC50 [2] was 1000 to 100000 nM.
With COc1ccc(-c2nc3sc4c(OC)cccc4c3c(=O)n2Cc2cnco2)c(C2CC2)c1 [Example 8, 2-(2-cyclopropyl-4-methoxyphenyl)-8-methoxy-3-(oxazol-5-ylmethyl)benzo[4,5]thieno[2,3-d]pyrimidin-4(3H)-one] the IC50 [1] was over 10000 nM and the IC50 [2] was 1000 to 100000 nM.
Work on O=c1c2c(nc(-c3ncc(C(F)(F)F)cc3C3CC3)n1Cc1cnc(C(F)(F)F)nc1)sc1c(O)c(Cl)ccc12 [Example 99] yielded an IC50 [1] of under 100 nM and an IC50 [2] of under 100 nM.
COc1ccc(-c2nc3sc4c(O)c(C)ccc4c3c(=O)n2Cc2cnco2)c(C2CC2)c1 [Example 32, 2-(2-cyclopropyl-4-methoxyphenyl)-8-hydroxy-7-methyl-3-(oxazol-5-ylmethyl)benzo[4,5]thieno[2,3-d]pyrimidin-4(3H)-one] was tested, and the IC50 [1] was under 100 nM and the IC50 [2] was 100 to 500 nM.
With CC(C)Oc1ccc(-c2nc3sc4c(O)c(Cl)ccc4c3c(=O)n2Cc2cnco2)c(C2CC2)c1 [Example 73] the IC50 [1] was under 100 nM and the IC50 [2] was under 100 nM.
COC(=O)c1cccc2c1sc1nc(-c3ccc(OC)cc3C3CC3)n(Cc3cnco3)c(=O)c12 [Example 1, methyl 2-(2-cyclopropyl-4-methoxyphenyl)-3-(oxazol-5-ylmethyl)-4-oxo-3,4-dihydrobenzo[4,5]thieno[2,3-d]pyrimidine-8-carboxylate] was tested, and the IC50 [1] was over 10000 nM and the IC50 [2] was 1000 to 100000 nM.
For O=c1c2c(nc(-c3c(F)cc(F)cc3C3CC3)n1Cc1cnco1)sc1c(O)c(Cl)ccc12 [Example 144], the IC50 [1] was under 100 nM and the IC50 [2] was under 100 nM.
CS(=O)(=O)c1ccc(-c2nc3sc4c(O)c(F)ccc4c3c(=O)n2Cc2cnc(C(F)(F)F)nc2)c(C2CC2)c1 [Example 71, 2-(2-cyclopropyl-4-(methylsulfonyl)phenyl)-7-fluoro-8-hydroxy-3-((2-(trifluoromethyl)pyrimidin-5-yl)methyl)benzo[4,5]thieno[2,3-d]pyrimidin-4(3H)-one] gave an IC50 [1] of under 100 nM and an IC50 [2] of under 100 nM.
With COc1cc(-c2nc3sc4c(O)c(Cl)ccc4c3c(=O)n2Cc2cnco2)c(C2CC2)cc1F [Example 82, 7-chloro-2-(2-cyclopropyl-4-fluoro-5-methoxyphenyl)-8-hydroxy-3-(oxazol-5-ylmethyl)benzo[4,5]thieno[2,3-d]pyrimidin-4(3H)-one] the IC50 [1] was under 100 nM and the IC50 [2] was under 100 nM.
In the case of O=c1c2c(nc(-c3ccc(F)cc3C3CC3)n1Cc1ccno1)sc1c(O)c(Cl)ccc12 [Example 52, 7-chloro-2-(2-cyclopropyl-4-fluorophenyl)-8-hydroxy-3-(isoxazol-5-ylmethyl)benzo[4,5]thieno[2,3-d]pyrimidin-4(3H)-one], the IC50 [1] is reported as under 100 nM and the IC50 [2] is reported as under 100 nM.
For COc1ccc(-c2nc3sc4c(O)c(Cl)ccc4c3c(=O)n2Cc2cnn(C)c2)c(C2CC2)c1 [Example 86], the IC50 [1] was under 100 nM and the IC50 [2] was under 100 nM.
Molecule O=c1c2c(nc(-c3cc(C(F)(F)F)c(Cl)cc3C3CC3)n1Cc1cnco1)sc1c(O)c(Cl)ccc12 [Example 79] has an IC50 [1] of under 100 nM and an IC50 [2] of under 100 nM.
For COc1ccc(-c2nc3sc4c(O)c(Cl)ccc4c3c(=O)n2Cc2cn(C(F)(F)F)nn2)c(C2CC2)c1 [Example 130], the IC50 [1] was under 100 nM and the IC50 [2] was under 100 nM.
For O=c1c2c(nc(-c3ncc(C(F)(F)F)cc3C3CC3)n1Cc1cc(C(F)(F)F)no1)sc1c(O)c(Cl)ccc12 [Example 96], the IC50 [1] was under 100 nM and the IC50 [2] was under 100 nM.
Molecule O=c1c2c(nc(-c3cc(Cl)c(Cl)cc3C3CC3)n1Cc1cnco1)sc1c(O)c(Cl)ccc12 [Example 77] has an IC50 [1] of under 100 nM and an IC50 [2] of under 100 nM.

Source: US20250154163A1, “Pyrimidinone-Containing 17-Beta-Hydroxysteroid Dehydrogenase Type 13 Inhibitors” (ENANTA PHARMACEUTICALS, INC., priority 2023, published 2025)
